{"source": "patent US12677825B2", "about": "“Composition for protecting islet transplantation” (LG CHEM, LTD., priority 2020, dated 2026)", "key": {"[1]": {"test_system": "islets from hIAPP+/− FVB/N mice", "test": "Intracellular free radical detection and lipid peroxidation after islet isolation", "type": "cell-based, mouse", "details": "20 μM Compound 1 during islet isolation, vs control islets", "experimental": "(§1) Mouse islets were isolated from 10- to 12-week-old hIAPP^+/− and C57BL/6 mice as described previously. Briefly, 0.8 mg/mL of collagenase P (Roche, Indianapolis, IN, USA) in Hank's buffered saline solution (HBSS, Sigma-Aldrich, St. Louis, MO, USA) with or without 20 μM Compound 1 were infused into the common bile duct for mouse pancreas digestion. Islets were purified from the digested pancreas using a Ficoll (Biochrom, Berlin, Germany) gradient and washed several times with 1 xHBSS. Isolated islets were cultured while free-floating in 10 mL of RPMI 1640 (Gibco, Grand Island, NY, USA). The medium was supplemented with 10% heat-inactivated FBS (fetal bovine serum) at 37° C. and 5% CO2 incubation prior to the ex vivo and in vivo studies.\nThe oxidative stress levels in hIAPP^+/− mouse islets were determined right after islet isolation and after ex vivo culture of isolated islets. The oxidative stress of the islets was quantified using a fluorescence-based intracellular ROS detection method and by estimating the concentration of malondialdehyde (MDA), a by-product of lipid peroxidation. The formation of total ROS, superoxide ion and nitric oxide was determined using a reactive oxygen species detection kit (ENZ-51011, Enzo Life Sciences, Farmingdale, New York, USA). The ROS content was measured by levels of DHR123 fluorescence. The kit was applied according to the manufacturer's protocol."}, "RINm5F cells": {"test_system": "RINm5F cells", "test": "tert-butyl hydroperoxide (tBHP) exposure of RINm5F cells", "type": "cell-based, rat", "details": "Compound 1 supplementation", "experimental": "Islets were isolated from heterozygous human islet amyloid polypeptide transgenic (hIAPP^+/−)FVB/N mice (Jackson Laboratory, Bar Harbor, ME, USA), […] mice (Orientbio, Sungnam, Korea), and cynomolgus monkeys (Macaca fascicularis; Orientbio, Sungnam, Korea). For additional in vitro studies, rat insulinoma cells (RINm5F cells) were treated with or without Compound 1 during culture under tert-butyl hydroperoxide (tBHP) exposure or serum deprivation condition. RINm5F cells were suspended in DMEM medium (Gibco, Grand Island, NY, USA) containing 100 IU/mL penicillin and 100 μg/mL streptomycin, and cultured at 37° C. in a fully humidified 5% CO2 atmosphere. All experimental protocols in this study were approved by the Institutional Animal Care and Use Committee (IACUC) of Samsung Biomedical Research Institute."}, "[2]": {"test_system": "STZ-induced diabetic hIAPP+/− FVB/N mice", "test": "Marginal mass renal subcapsular islet transplantation, islets isolated with or without Compound 1", "type": "in vivo, mouse", "experimental": "as §1\n(§2) A marginal mass renal subcapsular islet transplantation model was used to assess the in vivo islet function of hIAPP^+/− mice. To induce diabetes, 180 mg/kg of streptozotocin (STZ, Sigma-Aldrich) was administered to 8- to 10-week-old FVB/N mice. Mice were considered to have diabetes when two consecutive blood glucose level readings were higher than 300 mg/dL. Equal amounts (400 IEQ of islets per recipient) of islets isolated from hIAPP^+/− mice were allocated to the following two groups: culture medium supplemented with 0.625% BSA (BSA group) and 0.625% BSA plus Compound 1 (BSA+Compound 1 group) to evaluate the combined effect of Compound 1 on islet mass and function during ex vivo culture. After culture for 72 hours, islets were transplanted into the renal subscapular space of diabetic hIAPP^+/− mice. The IE number was calculated using the Ricordi algorithm by classifying islets according to their diameter. After islet transplantation, non-fasting blood glucose levels were measured three times a week for the first 2 weeks and twice a week for the last 2 weeks.\nAt 4 weeks after transplantation, the transplantation site on the kidney of mouse were removed and embedded in paraffin. Immunohistochemical staining is briefly explained in the following. After deparaffinization, 4-μm tissue sections were stained with the polyclonal guinea pig anti-insulin antibody (1:1000, A0546, DAKO, Denmark), glucacon (1:500, ab92517, abcam, United Kingdom) and amyloid (1:2500, #44-344, Invitrogen). Stained slides were observed using an Olympus BX40 light microscope (Olympus, Japan) with […] numeric aperture and ×40/0.75 numeric aperture objectives. Photographic images were collected with a digital camera (Olympus DP50) and analyzed using the Image-Pro Plus 5.1 software.\nFor quantification of the DAB-labeled β-cells, all slides were imaged at 10× on a Vectra 3.0 automated quantitative pathology imaging system and analyzed using inForm software (all from Perkin-Elmer, Waltham, MA, USA). The transplanted renal tissue sections were scanned for image acquisition and then to set the transplanted tissue segmentation, a number of representative regions of transplanted islet cells and regions to be excluded from the analysis such as renal tissues were examined by learn-by-example interface. For the β-cell segmentation, a spectral library was used to identify the hematoxylin-stained nuclei and the DAB-stained cytoplasm (β-cells) within the transplanted tissue. With these training sets, the algorithm for identifying only the DAB-stained cells in the transplanted tissue was verified. All the captured 10× images were analyzed, and the DAB-stained transplanted β-cells were counted."}, "[3]": {"test_system": "islet grafts in STZ-induced diabetic hIAPP+/− FVB/N mice", "test": "Amyloid accumulation in islet grafts (thioflavin S staining)", "type": "in vivo, mouse", "details": "islets cultured 72 hours with Compound 1, vs control group; FIG. 7G", "experimental": "as §2, with “weeks. […]” for “weeks.”"}, "[4]": {"test_system": "islets from hIAPP+/− FVB/N mice", "test": "Glucose-stimulated insulin secretion (GSIS) assay after islet isolation", "type": "cell-based, mouse", "details": "20 μM Compound 1 during islet isolation, vs non-treated group; FIG. 1E", "experimental": "as §1\nAfter hand-picking and washing with PBS, islets were seeded on 12-mm diameter insert wells (Merck Millipore, Billerica, MA, USA) with 10 islets per well, and preincubated with 60 mg/dL glucose in Kreb's-Ringer buffer (KRB: 129 mM NaCl, 4.8 mM KCl, 2.5 mM CaCl2, 1.2 mM KH2PO4, 5 mM NaHCO3, 10 mM HEPES, and 0.2% BSA) for […] at 37° C. After washing, islets were incubated with 300 mg/dL glucose-KRB for 1 hour, followed by additional incubation with 60 mg/dL glucose-KRB for 1 hour. Insulin release into the supernatant by the mouse islets was measured by ELISA (ALPCO, Salem, NH, USA) and a multiplex kit (Merck Millipore), respectively."}}, "data": [{"smiles": "O=S1(=O)CCN(Cc2cc(NC3CCOCC3)c3[nH]c(-c4ccccc4)cc3c2)CC1", "note": "[Compound 1]", "values": [{"measurement": "ROS contents in islets", "setting": "[1]; FIG. 1C", "value": "markedly decreased"}, {"measurement": "oxidative stress levels in islets", "setting": "[1]; FIG. 1D", "value": "markedly decreased"}, {"measurement": "cellular toxicity (LDH release)", "setting": "RINm5F cells; FIG. 4A", "value": "markedly reduced"}, {"measurement": "ROS contents", "setting": "RINm5F cells; FIG. 4B", "value": "markedly reduced"}, {"measurement": "diabetes reversal rate", "setting": "[2]; islets isolated with Compound 1, vs control group, FIG. 3C", "value": "better"}, {"measurement": "proportion of insulin positive area in the grafted tissue", "setting": "[2]; islets isolated with Compound 1, vs control group, FIG. 3F", "value": "greater"}, {"measurement": "glucose levels during intraperitoneal glucose tolerance test (IPGTT)", "setting": "[2]; islets isolated with Compound 1, vs control group, FIGS. 3D, 3E", "value": "better"}, {"measurement": "post-transplant glucose levels", "setting": "[2]; islets isolated with Compound 1, vs non-treated group, FIG. 3B", "value": "markedly lower"}, {"measurement": "glycemia after removal of the grafted kidney", "setting": "[2]; islets isolated with Compound 1, FIG. 3B", "value": "regain of hyperglycemia"}, {"measurement": "proportion of accumulation of amyloid in sections of islet grafts", "setting": "[3]", "value": "significantly reduced"}, {"measurement": "stimulation index in GSIS assay", "setting": "[4]", "value": "comparable values between two groups"}]}]}
